Test results published in patent US20240116985A1, “STAPLED PEPTIDES AND METHODS THEREOF” (priority 2020, published 2024).
≈ marks a conversion by molar mass, not a printed value. Where two headings read alike, the source gives them in different places.

How the values were obtained:
[1] = target: T1, full-length B-Catenin (Uniprot ID P35222) (Homo sapiens, UniProt P35222); experiment: Alphascreen binding assay (beta-catenin / biotin-TCF4 10-53)
T1 construct: 65 nM full-length B-Catenin (Uniprot ID P35222)
T1 sequence (P35222 1-781): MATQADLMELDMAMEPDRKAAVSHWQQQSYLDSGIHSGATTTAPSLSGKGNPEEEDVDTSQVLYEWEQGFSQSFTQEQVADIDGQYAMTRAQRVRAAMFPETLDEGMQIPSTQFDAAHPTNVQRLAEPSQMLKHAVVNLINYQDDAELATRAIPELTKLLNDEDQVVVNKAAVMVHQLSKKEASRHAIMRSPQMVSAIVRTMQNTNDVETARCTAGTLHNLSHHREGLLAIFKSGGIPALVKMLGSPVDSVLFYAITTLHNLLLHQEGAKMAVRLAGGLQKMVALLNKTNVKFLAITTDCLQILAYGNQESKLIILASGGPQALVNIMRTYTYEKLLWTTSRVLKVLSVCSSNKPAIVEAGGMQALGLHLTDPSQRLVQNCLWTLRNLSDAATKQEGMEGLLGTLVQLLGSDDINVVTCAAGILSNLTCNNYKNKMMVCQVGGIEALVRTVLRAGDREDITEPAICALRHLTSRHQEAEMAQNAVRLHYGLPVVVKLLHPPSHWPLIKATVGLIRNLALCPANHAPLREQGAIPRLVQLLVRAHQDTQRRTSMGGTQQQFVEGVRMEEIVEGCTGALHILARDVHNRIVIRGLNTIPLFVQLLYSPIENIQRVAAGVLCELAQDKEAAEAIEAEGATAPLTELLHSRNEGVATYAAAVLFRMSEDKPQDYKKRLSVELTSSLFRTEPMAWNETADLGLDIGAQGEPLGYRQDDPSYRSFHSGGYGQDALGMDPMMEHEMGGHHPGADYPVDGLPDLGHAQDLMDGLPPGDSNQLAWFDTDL
Method in brief: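 AlphaScreen (Ni-chelate beads) competition in 50 mM Tris pH 8.0, 250 mM NaCl with detergents and 0.1% BSA. Peptide titrated 10 uM–5 nM against 65 nM human β-catenin bound to 10 nM biotinylated TCF4 10-53, 15 min then 60 min with beads, both at 20 °C; 1:1 Hill-slope fit.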

[2] = target: T2, full-length beta-Catenin (Uniprot ID P35222) (Homo sapiens, UniProt P35222); experiment: Fluorescence polarization IC50 (beta-catenin / 5FAM-TCF4 10-53 competition); format: binding
T2 construct: 10 nM full-length beta-Catenin (Uniprot ID P35222)
T2 sequence (P35222 1-781): T1 sequence (P35222 1-781)

Solubility in PBS = format: physicochemical
Method in brief: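 Steps: ultracentrifuge the peptide PBS solution, inject the supernatant on HPLC, inject a 50 μM peptide DMSO solution as reference, then calculate solubility as area ratio (PBS/DMSO) × 50 uM.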

CHI Log D procedure = format: physicochemical; conditions: for CHI Log D: pH 7.4
[3] = Table E2-1, read-out: beta-Catenin FP IC50
[4] = fluorescence polarization, beta-catenin, read-out: FP EC50

Compound	EC50 [1]	IC50 [2, 3]	IC50 [2, 4]	Solubility (Solubility in PBS)	CHI Log D (CHI Log D procedure)	chromatographic logD (CHI Log D procedure; pH 7.4, CHI Log D)
CC[C@H](C)[C@H](NC(=O)[C@H](CC(=O)O)NC(=O)[C@H](C)NC(C)=O)C(=O)N[C@]1(C)CCN(C)C(=O)OCC=CCCCCC[C@@](C)(C(=O)N[C@@H](Cc2ccccc2)C(=O)N[C@@H](Cc2c[nH]c3ccccc23)C(=O)N[C@@H](Cc2c[nH]cn2)C(N)=O)NC(=O)[C@H](CCC(N)=O)NC(=O)[C@H](Cc2ccccc2)NC(=O)[C@H](C)NC(=O)[C@H](C)NC(=O)[C@H](CCC(=O)O)NC(=O)[C@H](CC(=O)O)NC1=O [I-67, Ac-Ala-Asp-Ile-RdN-Asp-Glu-Ala-Ala-Phe-Gln-S7-Phe-Trp-His-NH2]	154 nM	1230 nM	1230 nM	50 µM (≈ 92.1 µg/mL)	1.24	
CCN(CC(=O)O)C[C@@H]1NC(=O)[C@H](CC(=O)O)NC(=O)C2(CCCC=CCCCCCC[C@@](C)(C(=O)N[C@@H](Cc3ccccc3)C(=O)N[C@@H](Cc3c[nH]c4ccccc34)C(=O)N[C@@H](CCC(N)=O)C(N)=O)NC(=O)[C@H](C(C)C)NC(=O)[C@H](Cc3ccccc3)NC(=O)[C@H](C)NC(=O)[C@H](C)NC1=O)CCCC=CC[C@]1(CCCN1C(C)=O)C(=O)N[C@@H](CC(=O)O)C(=O)N[C@@H](C)C(=O)N2 (stereo partly drawn) [I-173, Ac-PL3-Asp-Ala-B5-Asp-EtGA-Ala-Ala-Phe-Val-S8-Phe-Trp-Gln-NH2]	105 nM	3120 nM	3120 nM	26 µM (≈ 47.8 µg/mL)	3.076	
CC(=O)N1CCC[C@]12CC=CCCCC1(CCCC=CCCCCCC[C@@](C)(C(=O)N[C@@H](Cc3ccccc3)C(=O)N[C@@H](Cc3c[nH]c4ccccc34)C(=O)N[C@@H](CCC(N)=O)C(N)=O)NC(=O)[C@H](C(C)C)NC(=O)[C@H](Cc3ccccc3)NC(=O)[C@H](C)NC(=O)[C@H](C)NC(=O)[C@H](CC(=O)O)NC(=O)[C@H](CC(=O)O)NC1=O)NC(=O)[C@H](C)NC(=O)[C@H](CC(=O)O)NC2=O (stereo partly drawn) [I-52, Ac-PL3-Asp-Ala-B5-Asp-Asp-Ala-Ala-Phe-Val-S8-Phe-Trp-Gln-NH2]	158 nM	3200 nM		50 µM (≈ 89.1 µg/mL)		1.93

The next lines start with the values.

EC50 [1]	IC50 [2, 3]	IC50 [2, 4]	Solubility (Solubility in PBS)	CHI Log D (CHI Log D procedure)	chromatographic logD (CHI Log D procedure; pH 7.4, CHI Log D)	Compound
74 nM	1310 nM	1310 nM	32 µM (≈ 56.1 µg/mL)	1.926		CC(=O)N1CCC[C@]12CC=CCCCC1(CCCC=CCCCCCC[C@@](C)(C(=O)N[C@@H](Cc3ccccc3)C(=O)N[C@@H](Cc3c[nH]c4ccccc34)C(=O)N[C@@H](CCC(N)=O)C(N)=O)NC(=O)[C@H](C)NC(=O)[C@H](Cc3ccccc3)NC(=O)[C@H](C)NC(=O)[C@H](C)NC(=O)[C@H](CC(=O)O)NC(=O)[C@H](CC(=O)O)NC1=O)NC(=O)[C@H](C)NC(=O)[C@H](CC(=O)O)NC2=O (stereo partly drawn) [I-288, Ac-PL3-Asp-Ala-B5-Asp-Asp-Ala-Ala-Phe-Ala-S8-Phe-Trp-Gln-NH2]
6800 nM			45 µM (≈ 82.4 µg/mL)	2.186		CC(=O)N1CCC[C@]12CC=CCCCC1(CCCC=CCCCCCC[C@@](C)(C(=O)N[C@@H](Cc3ccc4ccccc4c3)C(=O)N[C@@H](Cc3c[nH]c4ccccc34)C(=O)N[C@@H](CCC(N)=O)C(N)=O)NC(=O)[C@H](C(C)C)NC(=O)[C@H](Cc3ccccc3)NC(=O)[C@H](C)NC(=O)[C@H](C)NC(=O)[C@H](CC(=O)O)NC(=O)[C@H](CC(=O)O)NC1=O)NC(=O)[C@H](C)NC(=O)[C@H](CC(=O)O)NC2=O (stereo partly drawn) [I-277, Ac-PL3-Asp-Ala-B5-Asp-Asp-Ala-Ala-Phe-Val-S8-2NapA-Trp-Gln-NH2]
